The values that follow come from US8193238B2, “Inhibition of microtubule protrusion in cancer cells” (University of Maryland, Baltimore, priority 2006, dated 2012).

Entries after “also recorded” stand apart in the source; their conditions may differ.

The subject of data set [1] is chicken erythrocytes from day 2 embryos. Conditions: cited from earlier work.
Data set [2] has as its system detached mammary epithelial cells. The data set can be described thus: Protrusions of detached mammary epithelial cells, general statements. Type of data set: cell-based, human and mouse. On the procedure:
Time-lapse video microscopy of detached mammary epithelial cells detected the extension of long, dynamic protrusions of the plasma membrane, and the present inventors have characterized the cytoskeletal mechanism underlying this novel observation. […] This response may be relatively short-lived, in specific embodiments, since mammary epithelial cells die by apoptosis within about 24 hours in suspension. However, cell lines that resist apoptosis through expression of either Bcl-2 or Bcl-xL will persistently form protrusions. Previous studies by the inventors indicate that such apoptotically-resistant cell lines will not form tumors in mice and lie dormant in distant tissues, in specific embodiments of the invention. […] These microtubule processes can extend more than 3 times the cell diameter, and undergo a rapid probing motion more than once per second. Formation of these microtubule protrusions is necessary for efficient cell-cell and cell-substratum attachment. In particular embodiments of the invention, this inherent microtubule response in detached mammary epithelial cells provides at least some of the invasive characteristics of breast cancer, independent of any tumor-specific genetic alteration, for example.
Breast tumor cells enter the bloodstream long before the development of clinically evident metastasis. However, the early presence of such bloodborne cells predicts poor patient outcome. Nearly 90% of human breast tumors arise as carcinomas from mammary epithelial cells, so it is important to characterize how these cells respond to the detached conditions that they would experience in the bloodstream. In the present invention, mammary epithelial cell lines produce long and dynamic protrusions of the plasma membrane when detached. Although human and mouse mammary epithelial cell lines die by apoptosis within 16 hours of detachment, this protrusive response persists for days in cells overexpressing either Bcl-2 or Bcl-xL, for example. […] Since bloodborne metastasis depends on both cell-cell and cell-matrix attachment, microtubule-based protrusions in detached mammary epithelial cells provide a novel target that could influence the metastatic spread of breast tumors.
Detachment-induced increases in Glu-tubulin could promote plasma membrane protrusions of microtubules by preventing efficient capture at the actin cortex. […] Therefore, our current model is that detachment increases stabilized microtubules enriched in Glu-tubulin, while decreased actin polymerization simply promotes extension of these microtubule protrusions.

The test system of a further data set is EpH4 cells. The data set can be described thus: Protrusions in suspended cells treated with cytoskeletal inhibitors (EpH4). The class given is cell-based, mouse. Conditions: EpH4, 15 minutes of suspension; Latrunculin-A 5 μM, Colchicine 1 μM. On the procedure: (§1) In FIG. 2A, after 15 minutes of suspension, protrusions in EpH4 and MCF10A cells are quite small (Control, white arrows). […] In FIG. 2B, populations of live, suspended cells were scored blindly for two or more protrusions longer than the cell radius. Each bar represents the mean+S.D. for three experiments in which at least 100 single cells were counted.
EpH4 cells were suspended in either DMEM (Control) or media containing 5 μM Latrunculin-A (LA), 1 μM Colchicine or the combination of both drugs for 30 minutes. Cells were then spun onto glass coverslips and fluorescently stained for α-tubulin (green) and polymerized actin (red). Protrusions that are difficult to see by phase contrast are easily discernible with immunostaining for α-tubulin (white arrows). Protrusions contain little polymerized actin, except at points of concentration, which are often at the end (arrowhead).
EpH4 and B19 cells were suspended over 2% agarose coated plates to prevent attachment in either serum-free DMEM or media containing. Latrunculin-A (5 μM) to enhance protrusions. For co-staining of α-tubulin and actin, suspended cells were then centrifuged onto poly-L-lysine coated coverslips (280 g×5 min), fixed in 3.7% formaldehyde in PBS for 10 min, and permeablized with 0.1% Triton X-100 in PBS. Adhered cells were then stained for 1 hr at room temperature using FITC-conjugated anti-α-tubulin (1:200; Sigma), Alexa-594 phalloidin (1:100; Molecular Probes), and Hoescht 33342 (1:5000; Sigma).
(§2) In order to initially characterize the cytoskeletal mechanism underlying these protrusions, suspended cells were treated with inhibitors of actin and tubulin polymerization (FIG. 2). After 15 minutes of suspension, the protrusions in untreated EpH4 or MCF10A cells remain fairly short (FIG. 2, white arrows). These early protrusions can often be difficult to detect with phase-contrast microscopy, due to interfering light refraction from the plasma membrane. […] Protrusions were more easily visible with immunofluorescence than phase contrast microscopy (FIG. 3, white arrows). Although actin filament staining was generally low along the length of the protrusion, dense points of actin were often found at the end of protrusions (FIG. 3, arrowheads).

Data set [3] concerns MCF10A cells. Description: Protrusions in suspended cells treated with cytoskeletal inhibitors (MCF10A). Type of data set: cell-based, human. Conditions: MCF10A, 15 minutes of suspension; Latrunculin-A 5 μM, Colchicine 1 μM. On the procedure:
as §1, §2
The nontumorigenic human mammary epithelial cell line (MCF10A) or the indicated human breast tumor cell lines were grown in suspension for 30-60 minutes, and protrusions were counted in random fields with phase-contrast microscopy. Values represent the mean±S.D. of three experiments in which at least 100 cells were counted. […] This effect was most apparent in the highly metastatic but exemplary Bt-474 and MDA-MB-231 cells (pictured, black arrows). The exemplary MCF10A cells show far fewer and shorter protrusions at the same time point (pictured, white arrows). Such protrusions are not observed in attached cells.

In another data set the test system is MDA-231. Description: GFP-membrane protrusion counts after local anesthetics (MDA-231). Type of data set: cell-based, human. Conditions: MDA-231, GFP-membrane; Lidocaine 50 mM, Tetracaine 2.5 mM; with or without LA. On the procedure:
(§3) Cells were then suspended in DMEM culture media with or without […] Latrunculin-A (LA) to induce protrusions by depolymerizing actin. […] Bars represent mean+S.D. of at least three blindly counted experiments.

The test system of a further data set is Bt-474. Description: GFP-membrane protrusion counts after local anesthetics (Bt-474). Conditions: Bt-474, GFP-membrane; Lidocaine 50 mM, Tetracaine 2.5 mM; with or without LA. Type of data set: cell-based, human. On the procedure: as §3
A further data set relates to metastasis. Conditions: known, via unclear mechanism; cited from earlier work.
Another data set deals with cells. Type of data set: cell-based. Conditions: indicated concentrations, 2 hours.
For data set [4], the system named is MCF10A cells. The data set can be described thus: Chemical inhibition of Latrunculin-A-enhanced microtubule protrusions in suspended cells. The class given is cell-based, human. On the procedure:
MCF10A cells were placed into suspension in the presence of the indicated chemical inhibitors targeted at specific signaling pathways or the corresponding vehicle controls. Cells were then treated with the actin polymerization inhibitor, Latrunculin-A (LA, 5 μM) for one hour to enhance protrusions. […] Thus, protrusions can be reduced by chemical inhibition of specific signaling proteins.

In data set [5] the test system is MCF10A cells. Conditions: MCF10A treated two hours.

With `C=C1[C@@H](C)[C@H]2[C@H](Cc3ccccc3)NC(=O)[C@]23[C@H](OC(C)=O)/C=C/[C@@](C)(O)C(=O)[C@@H](C)C/C=C/[C@H]3[C@@H]1O` [Cytochalasin-D], the microtubule processes entry in [1] is “promotes microtubule processes”. For the same molecule, the results for the protrusions result (in data set [2]; in the data set on EpH4 cells; in the data set with MCF10A cells [3]) were “enhanced; also recorded: promotes the extension of microtubule protrusions”, “increased protrusions” and “increased protrusions”, respectively.
As for `CCN(CC)CC(=O)Nc1c(C)cccc1C` [Lidocaine], the protrusions result in the data set with MDA-231 and with Bt-474 was “inhibited significantly” throughout. Also, the metastasis result in the data set with metastasis was “reduce metastasis”.
For the molecule `Cn1sc(=O)n(Cc2ccccc2)c1=O` [TDZD-8], the cell viability entry in the data set with cells is listed as “did not reduce cell viability significantly”. In addition, the protrusions result with MCF10A cells [4] (MCF10A in suspension, then LA 5 μM one hour, sodium orthovanadate 1 mM, S-Trityl-L-Cysteine 100 μM, TDZD-8 20 μM) is “strongest inhibition of protrusions”. The protrusion frequency result in the data set on MCF10A cells [4] (one hour of treatment) was “reduce protrusion frequency significantly”.
On to `CCCCNc1ccc(C(=O)OCCN(C)C)cc1` [Tetracaine], for which, in the data set with MCF10A cells [5], the “concentration showing significant cell toxicity” value was at least 3000 µM. Moreover, the cell toxicity entry in the data set with MCF10A cells [5] (Lidocaine up to 50 mM) is on record as “cytotoxic”. In addition, the protrusions entry in the data set on MDA-231 and with Bt-474 was “inhibited significantly” in each case. Moreover, the metastasis result with metastasis is reported as “reduce metastasis”.
